Assay results reported in patent publication US7276576B1, “Mammalian ICYP (iodocyanopindolol) receptor and its applications” (Dainippon Sumitomo Pharma Co., Ltd., priority 1996, dated 2007).
Where two headings read alike, the source gives them in different places.

Tests used:
[1] = molecular target: T1, [125I]-ICYP specific binding site (SMBP, SM-11044 binding protein) in rat colon smooth muscle membranes (Rattus norvegicus, UniProt A0A8I6A822); assay: [125I]-ICYP saturation and competition binding to rat colon membranes (Example 2); conditions: for Ki: read-out: Ki on [125I]-ICYP specific binding to rat colon membranes; for Displacement of [125I]-ICYP specific binding (in words): competition binding, no concentration stated
T1 construct: Membranes from colon smooth muscles were prepared as essentially described by Ek et al., 1986; from tissue
Description: Incubations were carried out at 37° C. for 30 min in a shaking water-bath incubator and terminated by addition of 4 ml of ice-cold Tris-saline followed by rapid filtration under vacuum on Whatman GF/B filter presoaked in Tris-saline containing 0.1% polyethyleneimine (pH 7.4). The filters were washed three times with 4 ml of ice-cold Tris-saline, transferred to plastic tubes and counted in a γ-counter.
Hill coefficient was calculated by linear regression using saturation experiment data. Pseudo-Hill coefficient and IC50 were determined by the computer program, InPlot™ (GraphPad Software, CA, USA).

[2] = molecular target: T2, SMBP in rat colon smooth muscle membranes (Rattus norvegicus, UniProt A0A8I6A822); assay: [125I]-ICYP saturation binding to rat colon membranes (Example 1); conditions: means ± SD
T2 construct: Membranes from colon smooth muscles were prepared as essentially described by Ek et al., 1986; from tissue
Description: Frozen rat colons (SD strains, male and female) were purchased from Pel-Freeze Biologicals (Arkansas, USA). Membranes from colon smooth muscles were prepared as essentially described by Ek et al., 1986, with the slight following modifications. The colon segment was washed in ice-cold Tris-saline (10 mM Tris/HCl, 154 mM NaCl, (pH 7.4)), cut open longitudinally and the mucosa was removed by scrubbing with a glass slide on ice-cold plastic plate. The smooth muscle preparations were homogenized with a Polytron homogenizer for 1 min. The homogenate was filtered through a gauze and centrifuged (1,500×g for 20 min at 4° C.), the supernatant was collected and centrifuged (50,000×g for 20 min at 4° C.). The pellet comprising the membranes was resuspended in Tris-saline and was stored at −80° C. until use. The protein concentration was determined by Bio-Rad protein assay kit (Bio-Rad USA).
Saturation binding studies were performed in a final volume of 200 μl of Tris-saline containing 50 μg membrane proteins and different concentrations (0.05-25 nM) of [^125I]-ICYP, in the presence of 10 μM serotonine (5-HT), 10 μM phentolamine, 20 μM (±) propranolol and 1.1 mM ascorbic-acid pH 7.4), to block possible 5-HT receptors, ARs and oxidation of catecholamines, respectively. […] The filters were washed three times with 4 ml of ice-cold Tris-saline, transferred to plastic tubes and counted in a γ-counter.

guinea pig eosinophil = assay: Leukotriene B4 induced guinea pig eosinophil chemotaxis; type: cell-based; conditions: for Effect of antagonist on the inhibition of eosinophil chemotaxis: inhibition by SM-11044 and BRL-35135A
[3] = test system: rat colon smooth muscle segment; assay: Relaxation of KCl-induced tonus in rat colon segment (organ bath); conditions: for IA, rat colon relaxation: relative to isoproterenol; for EC50: Rattus norvegicus, read-out: pD2, rat colon relaxation (converted)
Description: Rat colon segment (2 cm) was suspended in organ bath containing 10 ml modified-Tyrode solution (Sugasawa T. et al. Eur. J. Pharmacol., 1992, 216, 207-215). The Tyrode solution contained 0.5 μM atropine, 0.5 μM desmethylimipramine, 30 μM hydrocortisone, 30 μM ascorbic acid, 10 μM phentolamine and 1 μM propranolol throughout study, in order to inhibit spontaneous contraction, neuronal and extra-neuronal uptake of norepinephrine, oxidation of catecholamines, possible α, β1- and β2-AR effects, respectively.
The relaxant action of agonists was determined by measuring relaxation of KCl (100 mM)-induced tonus evoked by cumulative addition of the agonists as described previously (Sugasawa T. et al. cited above). In the case of testing the effect of cyanopindolol, it was added 5-10 min before the addition of agonist.
(§1) Agonist concentration-ratios (CR) were determined from the EC50 values of the concentration-response curves of agonists with or without cyanopindolol, according to the method of Arunlakshana et al., 1959.
(§2) The EC50 values were calculated using the computer program, InPlot™.

rat white adipocytes = assay: Lipolysis in rat white adipocytes; type: cell-based; conditions: for IA, rat white adipocyte lipolysis: relative to isoproterenol; for EC50: Rattus norvegicus, Adipocyte, read-out: pD2, rat white adipocyte lipolysis (converted)
Description: White adipocytes were isolated from epididymal fat pads of male Wistar rats (190-230 g) and lipolysis was determined according to the previous report (Sugasawa T. et al. cited above). The cells were preincubated for 5 min at 37° C. in the presence of 30 μM ascorbic acid, 10 μM phentolamine and 1 μM propranolol.
Agonists were then applied and incubated for 90 min. In the case of testing the effect of cyanopindolol, it was added 5 min before the addition of agonist.
as §1, §2

[4] = molecular target: T3, 34 kDa photoaffinity-labeled protein (SMBP) in rat colon membranes (Rattus norvegicus, UniProt A0A8I6A822); assay: Photoaffinity labeling of rat colon membranes with [125I]-ICYP-diazirine; type: binding
T3 construct: Membranes from colon smooth muscles were prepared as essentially described by Ek et al., 1986; from tissue
Description: Incubations were carried out in the presence or absence of competitor at 37° C. for 45 min in the dark in a shaking water-bath incubator and terminated by addition of 10 ml of ice-cold Tris-saline followed by a rapid centrifugation (150,000×g for 10 min at 4° C.). The membranes were irradiated with a UV lamp for 5 min with cooling by circulating water. The labeled membranes were diluted with 10 ml of ice-cold Tris-saline, centrifuged (150,000×g for 30 min at 4° C.), and the pellet was resuspended in Tris-saline and kept at −80° C.
SDS-PAGE was performed under reducing conditions essentially as described by Laemmli, 1970, using 12% polyacrylamide gels (40% T, 2.6% C). […] After electrophoresis, the gels were dried and autoradiographed on X-OMAT™ AR film (Eastman Kodak Co., NY, USA), as specified in example 1, chapter <<(preparative SDS-PAGE>>.

[5] = 1 nM [125I]-ICYP, 10 μM 5-HT, 10 μM phentolamine and 20 μM propranolol
[6] = 10 μM phentolamine and 1 μM propranolol, mean ± SEM
[7] = up to the concentration of 1 mM

T1 sequence (A0A8I6A822 27-587): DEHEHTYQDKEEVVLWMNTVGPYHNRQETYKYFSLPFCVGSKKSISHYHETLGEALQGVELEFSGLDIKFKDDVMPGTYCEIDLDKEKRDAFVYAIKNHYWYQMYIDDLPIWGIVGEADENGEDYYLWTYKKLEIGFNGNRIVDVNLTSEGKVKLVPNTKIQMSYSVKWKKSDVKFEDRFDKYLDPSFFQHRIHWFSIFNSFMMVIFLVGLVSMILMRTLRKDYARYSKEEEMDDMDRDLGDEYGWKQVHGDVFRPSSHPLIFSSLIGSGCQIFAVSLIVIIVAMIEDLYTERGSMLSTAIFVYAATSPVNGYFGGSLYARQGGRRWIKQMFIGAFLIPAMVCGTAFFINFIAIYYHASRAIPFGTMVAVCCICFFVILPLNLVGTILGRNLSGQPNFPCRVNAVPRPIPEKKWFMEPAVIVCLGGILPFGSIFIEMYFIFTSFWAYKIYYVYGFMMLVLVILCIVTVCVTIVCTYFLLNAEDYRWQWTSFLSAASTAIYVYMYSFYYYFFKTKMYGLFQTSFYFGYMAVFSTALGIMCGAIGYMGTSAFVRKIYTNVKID
T3 sequence (A0A8I6A822 27-587): as above
T2 sequence (A0A8I6A822 27-587): as above

Structure (SMILES): O=C(O)COc1ccc(OCCNCC(O)COc2ccccc2)cc1 (stereo not drawn) [ICI-201651]
- Ki [1, 5]: > 100 µM

Structure (SMILES): O=C([C@@H](NCCCc1ccc(F)cc1)[C@@H](O)c1ccc(O)c(O)c1)N1CCCC1 (racemic) [SM-14010]
- Pseudo-Hill coefficient [1, 5]: 0.67 ± 0.13
- Ki [1, 5]: 29.3 µM

Structure (SMILES): CC(C)(C)NCC(O)COc1cccc2[nH]c(=O)[nH]c12 (stereo not drawn) [CGP-12177A]
- Ki [1, 5]: > 100 µM

Structure (SMILES): O=C([C@@H](NCCCc1ccc(F)cc1)[C@H](O)c1ccc(O)c(O)c1)N1CCCC1 (racemic) [SM-14011]
- Pseudo-Hill coefficient [1, 5]: 1.07 ± 0.15
- Ki [1, 5]: 2 µM
- Effectiveness in competition binding relative to SM-14010 ([1]; ratio of Ki, SM-14011 vs SM-14010): 15 times

Structure (SMILES): Cc1ccc(Cl)c(OCC(O)CNC(C)(C)C)c1 (racemic) [(±)-bupranolol, bupranolol]
- Pseudo-Hill coefficient [1, 5]: 1.08 ± 0.08
- Ki [1, 5]: 11.3 ± 0.8 µM

Structure (SMILES): CC(C)(C)NCC(O)COc1cccc2[nH]c(C#N)c([125I])c12 (single isomer, unassigned; (-)) [[^125I]-ICYP, (−)-3-[^125I] iodocyanopindolol]
- Specific binding at equilibrium levels ([1]; 1 nM [125I]-ICYP, 30 min, n=2): 82.7±1.9%
- Maximum number of binding sites (Bmax) ([1]; Example 2 membranes, 10 μM 5-HT, 10 μM phentolamine and 20 μM propranolol): 716.7±21.12 fmol/mg protein
- Hill coefficient of the saturation curve ([1]; saturation experiment, 30 min incubation): 0.99±0.03
- Maximum number of binding sites (Bmax) ([2]; Example 1 membranes): 1.13 ±0.071 pmol/mg membrane protein

Structure (SMILES): COC(=O)COc1ccc(OCCNCC(O)COc2ccccc2)cc1 (racemic) [ICI-198157, (RS)-4-[2-[(2-hydroxy-3-phenoxypropyl)amino]ethoxy]phenoxyacetic acid methyl ester]
- Pseudo-Hill coefficient [1, 5]: 0.96 ± 0.23
- Ki [1, 5]: 29.4 ± 8.9 µM
- Displacement of [125I]-ICYP specific binding (in words) [1]: displaced the specific binding

Structure (SMILES): C=CCc1ccccc1OCC(O)CNC(C)C (racemic) [(±)-alprenolol, alprenolol]
- Pseudo-Hill coefficient [1, 5]: 0.85 ± 0.24
- Ki [1, 5]: 13.3 ± 2.4 µM
- Effect of antagonist on the inhibition of eosinophil chemotaxis (guinea pig eosinophil): antagonized

Structure (SMILES): COC(=O)COc1ccc(CC(C)NCC(O)c2cccc(Cl)c2)cc1 (stereo not drawn) [BRL-35135A, (R*R*)-(+)-4-[2′-[2-hydroxy 2-(3-chlorophenyl)ethylamino]propyl]phenoxyacetic acid methyl ester]
- Pseudo-Hill coefficient [1, 5]: 0.80 ± 0.14
- Ki [1, 5]: 1.4 ± 0.1 µM
- Displacement of [125I]-ICYP specific binding (in words) [1]: displaced the specific binding
- Inhibition of leukotriene B4 induced guinea pig eosinophil chemotaxis (guinea pig eosinophil): inhibiting

Structure (SMILES): Nc1nc2c(ncn2[C@@H]2O[C@H](COP(=O)(O)OP(=O)(O)OP(=O)(O)O)[C@@H](O)[C@H]2O)c(=O)[nH]1 [GTP]
- Inhibition of [125I]-ICYP specific binding ([1]; at 300 μM, n=2): 29.8±2.7%
- Inhibition of [125I]-ICYP specific binding ([1]; at 1 mM, n=2): 98.2 ± 1.3%

Structure (SMILES): O=C(O)COc1ccc(OCCNC[C@H](O)COc2ccccc2)cc1 [ICI-215001]
- Ki [1, 5]: > 100 µM

Structure (SMILES): NC[C@H](O)c1ccc(O)c(O)c1 [(−)-norepinephrine, norepinephrine]
- IA, rat colon relaxation [3, 6]: 0.85 ± 0.168
- EC50 [3]: 1.41 µM
- IA, rat white adipocyte lipolysis (rat white adipocytes; [6]): 1.02 ± 0.058
- EC50 (rat white adipocytes): 3.98 µM
- Ki [1, 5]: > 1000 µM
- Displacement of [125I]-ICYP specific binding [1, 7]: not displaced

Structure (SMILES): CC(C)NCC(O)COc1cccc2ccccc12 (stereo not drawn) [propranolol]
- Effect on photoaffinity-labeled bands ([4]; competitor 20 μM, 10 μM 5-HT and 10 μM phentolamine): only the 34 kDa band remained visible
- Effect of antagonist on the inhibition of eosinophil chemotaxis (guinea pig eosinophil): unaffected

Structure (SMILES): NCCc1c[nH]c2ccc(O)cc12 [5-HT, serotonine]
- Ki [1, 5]: > 1000 µM
- Displacement of [125I]-ICYP specific binding [1, 7]: not displaced

Structure (SMILES): CC(C)NCC(O)COc1cccc2[nH]c3ccccc3c12 (racemic) [(±)-carazolol, carazolol]
- Pseudo-Hill coefficient [1, 5]: 0.77 ± 0.11
- Ki [1, 5]: 8.1 ± 1.7 µM
- Displacement of [125I]-ICYP specific binding (in words) [1]: less effective

Structure (SMILES): NCCc1ccc(O)c(O)c1 [Dopamine, dopamine]
- Ki [1, 5]: > 1000 µM
- Displacement of [125I]-ICYP specific binding [1, 7]: not displaced

Structure (SMILES): CC(Cc1ccc(OCC(=O)O)cc1)NCC(O)c1cccc(Cl)c1 (stereo not drawn) [BRL-37344]
- IA, rat colon relaxation [3, 6]: 1.00 ± 0.126
- EC50 ([3]; relaxation of KCl (100 mM)-induced tonus, 10 μM phentolamine and 1 μM propranolol, mean ± SEM): 0.0316 µM
- IA, rat white adipocyte lipolysis (rat white adipocytes; [6]): 0.72 ± 0.0333
- EC50 (rat white adipocytes; [6]): 0.0562 µM
- Ki [1, 5]: > 100 µM
- Displacement of [125I]-ICYP specific binding ([1]; up to the concentration of 100 μM): did not displace
- Displacement of the photoaffinity-labeled 34 kDa band ([4]; competitor 100 μM, 1.5 nM [125I]-ICYP-diazirine, 10 μM 5-HT, 10 μM phentolamine, 20 μM propranolol): not displaced
- Inhibition of leukotriene B4 induced guinea pig eosinophil chemotaxis (guinea pig eosinophil): no such effect

Structure (SMILES): CNC[C@H](O)c1ccc(O)c(O)c1 [(−)-epinephrine, epinephrine]
- IA, rat colon relaxation [3, 6]: 0.86 ± 0.137
- EC50 [3]: 1.2 µM
- IA, rat white adipocyte lipolysis (rat white adipocytes; [6]): 0.91 ± 0.036
- EC50 (rat white adipocytes): 6.92 µM
- Ki [1, 5]: > 1000 µM
- Displacement of [125I]-ICYP specific binding [1, 7]: not displaced

Structure (SMILES): CC(C)(C)NCC(O)COc1cccc2[nH]c(C#N)c(I)c12 (single isomer, unassigned; (-)) [[^125I]-ICYP, (−)-3-[^125I] iodocyanopindolol]
- Kd ([1]; Example 2 membranes (Wistar rats), 10 μM 5-HT, 10 μM phentolamine and 20 μM propranolol, read-out: Dissociation constant (Kd), Scatchard plot): 0.011 ± 0.00095 µM
- Kd ([2]; Example 1 membranes (SD rats), blockade of adrenergic and serotonine receptors, read-out: Dissociation constant (Kd), Scatchard plot): 0.00722 ± 7e-06 µM

Structure (SMILES): O=C([C@H](NCCCc1ccc(F)cc1)[C@@H](O)c1ccc(O)c(O)c1)N1CCCC1 [SM-14786]
- Pseudo-Hill coefficient [1, 5]: 0.92 ± 0.15
- Ki [1, 5]: 3.7 ± 0.4 µM

Structure (SMILES): Cc1ccc(OCC(O)C(C)NC(C)C)c2c1CCC2 (stereo not drawn) [ICI-118551]
- Pseudo-Hill coefficient [1, 5]: 0.89 ± 0.14
- Ki [1, 5]: 28.5 µM

Structure (SMILES): CCOC(=O)COc1ccc2c(c1)C[C@@H](NC[C@H](O)c1cccc(Cl)c1)CC2 (racemic) [SR-58611A, (RS)-N-(7 carbethoxymethoxyl-1,2,3,4-tetrahydronaphth-2-yl)-2-hydroxy-2-(3 chlorophenyl) ethanamine hydro-chloride]
- Pseudo-Hill coefficient [1, 5]: 1.21 ± 0.21
- Ki [1, 5]: 5.9 ± 1 µM
